Where two headings read alike, the source gives them in different places.
Tests used:
Aβ(1-42) = target: T1, Aβ(1-42) (Homo sapiens, UniProt P05067); experiment: Aβ(1-42) fibrillization assay (ThT); type: biochemical; conditions: Table 3, highest tested concentration (80 μM); for inhibition at 80 µM: read-out: Aβ42 ThT Assay % Inhib.
T1 construct: Synthetic Aβ(1-42) peptide (rPeptide); purchased rPeptide

K18PL tau [1] = target: T2, K18PL tau (Homo sapiens, UniProt P10636, P618L); experiment: K18PL tau centrifugation (sedimentation) assay, SDS-PAGE densitometry; type: biochemical; conditions: K18PL tau centrifugation assay
T2 construct: (K18PL; amino acids 244-369); made in house
T2 sequence (P10636 561-686 P618L): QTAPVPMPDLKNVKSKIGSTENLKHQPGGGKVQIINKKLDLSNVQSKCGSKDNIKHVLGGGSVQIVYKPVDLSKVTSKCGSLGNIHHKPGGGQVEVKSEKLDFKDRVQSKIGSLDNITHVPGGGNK
Experimental: The determination of compound-induced effects on the amount of tau that remains soluble upon centrifugation, and EM visualization of tau species following incubation with test compounds, were as previously described (Crowe, A., Ballatore, C., Hyde, E., Trojanowski, J. Q., and Lee, V. M. Y. (2007) Biochemical and Biophysical Research Communications 358, 1-6).
(§1) The solubility of test compounds in the sodium acetate buffer used for subsequent fibrillization reactions was determined by turbidimetric measurements. Compounds were then evaluated in a heparin-induced tau assembly assay, in which the fibrillization of the truncated K18 tau fragment (comprised of four MT-binding repeats) bearing the P301L mutation (K18PL) found in FTDP-17, was monitored by thioflavine-T (ThT) binding and fluorescence (FIG. 3A). (Crowe, A.; et al., Identification of aminothienopyridazine inhibitors of tau assembly by quantitative high-throughput screening. Biochemistry 2009, 48, 7732-45.) The inhibitory activity of test compounds was then confirmed with an orthogonal sedimentation assay in which compound-treated fibrillizing mixtures were centrifuged and quantitation of K18PL tau in the soluble and insoluble fraction was performed by densitometric analyses of SDS-PAGE (FIG. 3B). […] Thus, the tau fibrillization assay was repeated in which both DMSO- and compound-treated mixtures were initially centrifuged for 30 min. prior to incubation (i.e., at time zero of the fibrillization reaction) to remove any pelletable material.

K18PL tau [2] = target: T2, K18PL tau; experiment: Heparin-induced K18PL tau fibrillization assay monitored by ThT fluorescence; type: biochemical; conditions: for inhibition at 80 µM / Tau ThT Assay % Inhib.: highest tested concentration (80 μM); for inhibition at 80 µM: read-out: Tau ThT Assay % Inhib.; for IC50 / Tau ThT Assay Log IC50: logarithm of IC50, K18PL tau ThT fluorescence inhibition; for IC50: read-out: Tau ThT Assay Log IC50 (converted)
Experimental: Tau fibril formation reactions were performed essentially as described (Crowe, A., Ballatore, C., Hyde, E., Trojanowski, J. Q., and Lee, V. M. Y. (2007) Biochemical and Biophysical Research Communications 358, 1-6). K18PL (2 μl of a 30 μM stock that also contained 0.24 μM Alexa Red-labeled K18PL) was dispensed into black 1536-well plates (Grenier) using a solenoid-based dispenser. Following transfer of 23 nL of test compound or DMSO vehicle by a pin tool from compound library plates, 2 μl/well of 40 μM heparin in reagent buffer was dispensed and the plate was centrifuged for 15 s at 1000 rpm in a table-top centrifuge. The fibrillization reaction proceeded for 6 hours at 37° C. in a humidified incubator (Kalypsys).
K18PL fibril formation was quantified with a ThT assay as previously described (Crowe, A., Ballatore, C., Hyde, E., Trojanowski, J. Q., and Lee, V. M. Y. (2007) Biochemical and Biophysical Research Communications 358, 1-6). Briefly, 1 μl/well of 62.5 μM ThT (Sigma) in 100 mM glycine, pH 8.5 (12.5 μM final concentration) was dispensed into 1536-well plates after completion of the fibrillization reaction and incubated at room temperature for 1 hour. Plates were read on an Envision fluorescence plate reader with an excitation of 450 nm and an emission setting of 510 nm.
Compound effects on tau assembly were determined for the ThT and FP assays using the formula 1−(Fcompound− FDMSO)/( Fcontrol− FDMSO), where Fcontrol denotes the median plate fluorescence values (ThT assay) or mP values (FP assay) of the non-fibrillizing K18 KD control wells, FDMSO denotes the median value of the DMSO control wells, and Fcompound denotes the compound well values. The resulting values were multiplied by 100 to obtain the percent inhibition of tau fibril formation.
as §1

[3] = Table 3, NC = not calculated due to insufficient activity

T1 sequence (P05067 672-713 limits assumed): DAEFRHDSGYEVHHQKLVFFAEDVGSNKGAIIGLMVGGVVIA

Structure (SMILES) | inhibition at 80 µM (Aβ(1-42)) | Tau Cent. Assay % Soluble (K18PL tau [1]; Table 3) | inhibition at 80 µM (K18PL tau [2]; Table 3) | IC50 (K18PL tau [2]; [3]) | Tau Cent. Assay % Soluble (K18PL tau [1]; Table 4) | inhibition at 80 µM (K18PL tau [2]; Table 4) | further results
Nc1scc2c(C(=O)O)nn(-c3ccccc3)c(=O)c12 [Compound 6a] | 20% | 84% | 92% | 7.94 µM | – | – | –
Nc1nn(-c2ccccc2)c(=O)c2c(N)scc12 [Compound 14] | 21% | 86% | 92% | 6.31 µM | – | – | –
Nc1scc2c(C(=O)NCc3ccccc3)nn(-c3ccccc3)c(=O)c12 [Compound 8a] | 27% | 54% | 80% | 7.94 µM | – | – | –
CCOC(=O)c1nn(-c2ccc(N=[N+]=[N-])cc2)c(=O)c2c(N)scc12 [CNDR-51412, Ethyl 5-amino-3-(4-azidophenyl)-4-oxo-3,4-dihydrothieno[3,4-d]pyridazine-1-carboxylate] | – | – | – | – | 51% | 80% | IC50 (K18PL tau [2]; Table 4): 6.31 µM; melting point: 169 to 170 °C
CCOC(=O)c1nn(-c2ccc(C)c(C)c2)c(=O)c2c(N)scc12 [Compound 5c] | 7% | 28% | 48% | – | – | – | –
CCOC(=O)c1nn(-c2ccc(Br)cc2)c(=O)c2c(N)scc12 [CNDR-51386, Ethyl 5-amino-3-(4-bromophenyl)-4-oxo-3,4-dihydrothieno[3,4-d]pyridazine-1-carboxylate] | – | – | – | – | – | – | melting point: 198 to 200 °C
CCOC(=O)c1nn(-c2ccccc2)c(=O)c2c(N)scc12 [Compound 5a] | – | 55% | – | – | – | – | Aβ42 ThT Assay % Inhib. (Aβ(1-42)): −1%; Tau ThT Assay % Inhib. (K18PL tau [2]; Table 3): 80%; Tau ThT Assay Log IC50 (K18PL tau [2]; [3]): −5.2
COc1ccc(-n2nc(C(=O)O)c3csc(N)c3c2=O)cc1 [Compound 6b] | 1% | 95% | 94% | 2.51 µM | – | – | –
CCOC(=O)c1ccc(-n2nc(C(=O)OCC)c3csc(N)c3c2=O)cc1 [Compound 5e] | 4% | 23% | 29% | – | – | – | –
CCOC(=O)c1nn(-c2ccccc2)c(=O)c2c(NC(=O)c3ccccc3)scc12 [Compound 9c] | -7% | 2% | 8% | – | – | – | –
COC(=O)c1nn(-c2ccc(F)cc2)c(=O)c2c(N)scc12 [Compound 18] | 29% | 64% | 86% | 5.01 µM | – | – | –
CCOC(=O)c1nn(-c2ccccc2)c(=O)c2c(N)sc(C)c12 [Compound 5f] | 21% | 4% | 35% | – | – | – | –
CCOC(=O)c1nn(-c2ccc(Cl)c(Cl)c2)c(=O)c2c(N)scc12 [Compound 5g] | 6% | 12% | 29% | – | – | – | –
NC(=O)c1nn(-c2ccccc2)c(=O)c2c(N)scc12 [Compound 8c] | 16% | 89% | 93% | 6.31 µM | – | – | –
CC(=O)Nc1sc(C)c2cnn(-c3ccccc3)c(=O)c12 [Compound 16] | -11% | 5% | 11% | – | – | – | –
CCN(CC)C(=O)c1nn(-c2ccc(OC)cc2)c(=O)c2c(N)scc12 [Compound 8d] | 35% | 99% | 95% | 10 µM | – | – | –
Nc1scc2c(CO)nn(-c3ccccc3)c(=O)c12 [Compound 15] | 10% | 81% | 91% | 6.31 µM | – | – | –
CCOC(=O)c1nn(-c2ccc(C)cc2)c(=O)c2c(N)scc12 [Compound 5h] | 12% | 35% | 51% | 126 µM | – | – | –
CC(C)NC(=O)c1nn(-c2cccc(Cl)c2)c(=O)c2c(N)scc12 [CNDR-51391, 5-Amino-3-(3-chlorophenyl)-N-isopropyl-4-oxo-3,4-dihydrothieno[3,4-d]pyridazine-1-carboxamide] | – | – | – | – | 62% | 83% | IC50 (K18PL tau [2]; Table 4): 1.26 µM
Nc1scc2c(C(=O)O)nn(-c3cccc(Cl)c3)c(=O)c12 [CNDR-51388, 5-Amino-3-(3-chlorophenyl)-4-oxo-3,4-dihydrothieno[3,4-d]pyridazine-1-carboxylic acid] | – | – | – | – | 71% | 92% | Tau ThT Assay Log IC50 (K18PL tau [2]; Table 4): −5.8
Nc1scc2c(C(=O)O)nn(-c3ccc(Br)cc3)c(=O)c12 [CNDR-51389, 5-Amino-3-(4-bromophenyl)-4-oxo-3,4-dihydrothieno[3,4-d]pyridazine-1-carboxylic acid] | – | – | – | – | 78% | 95% | IC50 (K18PL tau [2]; Table 4): 3.16 µM
CCOC(=O)c1nn(-c2ccc(O)cc2)c(=O)c2c(N)scc12 [CNDR-51363, Ethyl 5-amino-3-(4-hydroxyphenyl)-4-oxo-3,4-dihydrothieno[3,4-d]pyridazine-1-carboxylate] | – | – | – | – | 69% | 81% | Tau ThT Assay Log IC50 (K18PL tau [2]; Table 4): −5.3
Nc1scc2c(C(=O)N3CCOCC3)nn(-c3ccccc3)c(=O)c12 [Compound 8b] | 0% | 89% | 81% | 15.8 µM | – | – | –
Nc1scc2c(C(=O)NCCO)nn(-c3ccc(Cl)cc3)c(=O)c12 [CNDR-51433, 5-Amino-3-(4-chlorophenyl)-N-(2-hydroxyethyl)-4-oxo-3,4-dihydrothieno[3,4-d]pyridazine-1-carboxamide] | – | – | – | – | 77% | 82% | IC50 (K18PL tau [2]; Table 4): 3.98 µM
CC(C)NC(=O)c1nn(-c2ccc(OC(F)(F)F)cc2)c(=O)c2c(N)scc12 [CNDR-51375, 5-Amino-N-isopropyl-4-oxo-3-(4-(trifluoromethoxy)phenyl)-3,4-dihydrothieno[3,4-c]pyridazine-1-carboxamide] | – | – | – | – | 42% | 67% | –
CCOC(=O)c1nn(-c2ccccc2)c(=O)c2c(NC(C)=O)scc12 [Compound 9b] | – | 11% | 27% | – | – | – | –
CCOC(=O)c1nn(-c2ccc(C(C)C)cc2)c(=O)c2c(N)scc12 [CNDR-51347] | – | – | – | – | 17% | – | Tau ThT Assay % Inhib. (K18PL tau [2]; Table 4): 8%
CCOC(=O)c1nn(-c2ccccc2-c2ccccc2)c(=O)c2c(N)scc12 [CNDR-51435, Ethyl 3-([1,1′-biphenyl]-2-yl)-5-amino-4-oxo-3,4-dihydrothieno[3,4-d]pyridazine-1-carboxylate] | – | – | – | – | 65% | 78% | IC50 (K18PL tau [2]; Table 4): 0.794 µM
CCOC(=O)c1nn(-c2ccc(I)cc2)c(=O)c2c(N)scc12 [CNDR-51404, Ethyl 5-amino-3-(4-iodophenyl)-4-oxo-3,4-dihydrothieno[3,4-d]pyridazine-1-carboxylate] | – | – | – | – | 63% | 89% | IC50 (K18PL tau [2]; Table 4): 2.51 µM
